Laboratory results taken from paper PMC10095747, “Modulatory Effects of Atractylodin and β-Eudesmol on Human Cytochrome P450 Enzymes: Potential Drug-Drug Interactions” (Molecules, 2023).
Like-named read-outs stand apart in the source and are kept apart here.

How the values were obtained:
rCYP1A2 = target: T1, rCYP1A2 (Homo sapiens, UniProt P05177); assay: luminogenic P450-Glo CYP450 inhibition assay, rCYP1A2; conditions: three independent experiments
T1 sequence (P05177 1-516): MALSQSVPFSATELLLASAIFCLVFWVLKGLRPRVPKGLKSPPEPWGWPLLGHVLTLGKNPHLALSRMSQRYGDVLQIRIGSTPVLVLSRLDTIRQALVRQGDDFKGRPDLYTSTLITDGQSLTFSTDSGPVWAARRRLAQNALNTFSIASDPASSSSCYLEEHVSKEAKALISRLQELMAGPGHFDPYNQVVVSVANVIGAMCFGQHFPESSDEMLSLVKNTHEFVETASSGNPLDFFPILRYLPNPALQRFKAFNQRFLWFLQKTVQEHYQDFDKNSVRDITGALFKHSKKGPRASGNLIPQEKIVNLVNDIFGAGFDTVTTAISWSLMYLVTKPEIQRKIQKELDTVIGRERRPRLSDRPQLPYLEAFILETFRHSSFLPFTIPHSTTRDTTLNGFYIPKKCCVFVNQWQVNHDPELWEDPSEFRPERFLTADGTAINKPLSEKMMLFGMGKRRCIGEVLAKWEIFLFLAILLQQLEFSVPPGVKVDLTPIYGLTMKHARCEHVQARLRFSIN
Description: (§1) The luminescent cytochrome P450 assay was used to determine CYP450-mediated (CYP1A2, 2C9, 2C19, 2D6, and 3A4) metabolism of atractylodin and β-eudesmol. The assay consisted of each recombinant human CYP450 (rCYP450), control membranes lacking P450 activity, a luminogenic CYP450 substrate (luciferin-ME substrate for rCYP1A2, luciferin-H substrate for rCYP2C9, luciferin-H EGE substrate for rCYP2C19, luciferin-ME EGE substrate for rCYP2D6, and luciferin-IPA substrate for rCYP3A4), KPO4 buffer, luciferin free water, NADPH regeneration system, and a luciferin detection reagent. The rCYP450 enzymes were generated from a baculovirus-infected insect cell expression system. The concentrations of the recombinant CYPs used were 0.5 (rCYP1A2 and rCYP2C9), 0.25 (rCYP2C19 and rCYP2D6) or 0.2 (rCYP3A4) pmol (0.5μL) per reaction. […] A luciferin product was produced after adding 25 µL of NADPH Regeneration System (solution A, solution B, and luciferin-free water) and incubated at 37 °C for 10 (rCYP1A2 and rCYP3A4), 20 (rCYP2C19 and rCYP2C9) or 30 (rCYP2D6) minutes. The reaction was stopped and converted to a luminescent signal after adding Luciferin Detection Reagent (50 µL) and incubated at 25 °C for 20 min. The luminescence signals obtained were determined using a Varioskan® Flash microplate reader (Waltham, MA, USA). The magnitude of luminescence in all of the samples represented CYP450 activity. […] All stock solutions were diluted with luciferin-free water until the final concentration of organic solvent was less than 0.25% (v/v) of the total reaction. The concentration range of atractylodin and β-eudesmol used were 2.74–686 µM and 2.25–562 µM, respectively. […] The concentration that inhibited the activity of each rCYP450 by 50% (IC50) was calculated using Calcusyn software (Cambridge, UK). Data are reported as the median (range) of the three independent experiments.

rCYP2C19 = rCYP2C19 (Homo sapiens, UniProt P33261); assay: luminogenic P450-Glo CYP450 inhibition assay, rCYP2C19; conditions: three independent experiments
Description: as §1

[1] = system: all rCYP450s (rCYP1A2, rCYP2C9, rCYP2C19, rCYP2D6, rCYP3A4); assay: luminogenic CYP450 inhibition assay, statement over all five rCYP450s
Description: The luminescent cytochrome P450 assay was used to determine CYP450-mediated (CYP1A2, 2C9, 2C19, 2D6, and 3A4) metabolism of atractylodin and β-eudesmol. The assay consisted of each recombinant human CYP450 (rCYP450), control membranes lacking P450 activity, a luminogenic CYP450 substrate (luciferin-ME substrate for rCYP1A2, luciferin-H substrate for rCYP2C9, luciferin-H EGE substrate for rCYP2C19, luciferin-ME EGE substrate for rCYP2D6, and luciferin-IPA substrate for rCYP3A4), KPO4 buffer, luciferin free water, NADPH regeneration system, and a luciferin detection reagent. The rCYP450 enzymes were generated from a baculovirus-infected insect cell expression system. The concentrations of the recombinant CYPs used were 0.5 (rCYP1A2 and rCYP2C9), 0.25 (rCYP2C19 and rCYP2D6) or 0.2 (rCYP3A4) pmol (0.5μL) per reaction. […] A luciferin product was produced after adding 25 µL of NADPH Regeneration System (solution A, solution B, and luciferin-free water) and incubated at 37 °C for 10 (rCYP1A2 and rCYP3A4), 20 (rCYP2C19 and rCYP2C9) or 30 (rCYP2D6) minutes. The reaction was stopped and converted to a luminescent signal after adding Luciferin Detection Reagent (50 µL) and incubated at 25 °C for 20 min. The luminescence signals obtained were determined using a Varioskan® Flash microplate reader (Waltham, MA, USA). The magnitude of luminescence in all of the samples represented CYP450 activity. […]

hCYP1A2 = system: hCYP1A2; design: method as in PMID 35139770; conditions: ligand-binding difference spectroscopy; cited from earlier work
hCYP3A4 = system: hCYP3A4; design: method as in PMID 35139770; conditions: ligand-binding difference spectroscopy; cited from earlier work
hCYP2C9 = system: hCYP2C9; design: method as in PMID 35139770; conditions: ligand-binding difference spectroscopy; cited from earlier work
hCYP2C19 = system: hCYP2C19; design: method as in PMID 35139770; conditions: ligand-binding difference spectroscopy; cited from earlier work

Chain of rCYP2C19 (P33261 whole entry): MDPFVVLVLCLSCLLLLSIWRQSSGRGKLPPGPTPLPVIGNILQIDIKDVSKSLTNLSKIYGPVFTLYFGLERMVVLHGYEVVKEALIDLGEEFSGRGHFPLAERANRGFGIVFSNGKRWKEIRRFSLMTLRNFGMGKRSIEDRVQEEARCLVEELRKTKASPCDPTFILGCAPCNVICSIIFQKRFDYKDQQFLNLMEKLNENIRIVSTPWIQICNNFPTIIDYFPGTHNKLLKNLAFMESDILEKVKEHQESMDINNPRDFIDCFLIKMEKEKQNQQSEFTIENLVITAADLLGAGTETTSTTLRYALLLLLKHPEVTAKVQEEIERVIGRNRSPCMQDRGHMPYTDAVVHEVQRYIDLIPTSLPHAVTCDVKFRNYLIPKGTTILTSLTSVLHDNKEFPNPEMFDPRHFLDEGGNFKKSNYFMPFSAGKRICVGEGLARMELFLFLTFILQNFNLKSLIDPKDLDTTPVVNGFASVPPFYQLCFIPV

Compound | Median IC50 (Range) rCYP1A2 (rCYP1A2; median (range)) | IC50 (rCYP1A2; read-out: Median IC50 (Range) rCYP1A2, median (range)) [µM] | Median IC50 (Range) rCYP2C19 (rCYP2C19; median (range)) [µg/mL] | IC50 (rCYP2C19; read-out: Median IC50 (Range) rCYP2C19, median (range)) [µM] | inhibitory effects on all rCYP450s (potency class) [1] | IC50 (rCYP1A2; Median IC50 (Range) rCYP1A2, median (range)) [µM] | IC50 (rCYP2C19; Median IC50 (Range) rCYP2C19, median (range)) [µM] | binding to hCYP1A2 (hCYP1A2) | binding to hCYP3A4 (hCYP3A4) | binding to hCYP2C9 (hCYP2C9) | binding to hCYP2C19 (hCYP2C19)
C/C=C/C#CC#C/C=C/c1ccco1 [Atractylodin] | 90.6 (83.8–102.3) µg/ml | 497 | >125 | > 686 | weak (weak (IC50 ≥ 50 µM)) | – | – | – | – | – | –
C=C1CCC[C@]2(C)CC[C@@H](C(C)(C)O)C[C@@H]12 [β-Eudesmol] | – | – | – | – | – | > 562 | 173 | bound | bound | not | not
